Experimental findings from paper PMC6867895 (mBio, 2019) are described below.

≈ marks a conversion by molar mass, not a printed value. Read-outs that look alike come from different tables or passages of the source.

For assay [1], the target named is T1, VIM-2 (Pseudomonas aeruginosa, UniProt Q9K2N0).
T1 construct: gene blaVIM-2
As to conditions: read-out: Parameter by metallo-β-lactamase / VIM-2 / KM; 50 mM HEPES pH 7.0, 10 μM added ZnSO4, 25°C.

Another assay deals with E. coli DH10B pBCSK-. As to the kind of experiment: microbe, parasite or virus in culture. Particulars: Escherichia coli, DH10BPBCSK, read-out: MIC.
In assay [2] the test system is E. coli DH10B pBCSK- blaVIM-2. The experiment in a line: microbe, parasite or virus in culture. As to conditions: Escherichia coli, read-out: MIC.
The target of assay [3] is T1, VIM-2. Particulars: read-out: Parameter by metallo-β-lactamase / VIM-2 / KM; 50 mM HEPES pH 7.0, 10 μM added ZnSO4, 25°C. This is another data set of the same source.
For assay [4], the target named is T1, VIM-2. Particulars: read-out: Parameter by metallo-β-lactamase / VIM-2 / KM; 50 mM HEPES pH 7.0, 10 μM added ZnSO4, 25°C. The source holds these as a separate data set.
Assay [5] has as its target T1, VIM-2. The experiment in a line: initial-rate hydrolysis, absorbance […] nm (product formation). The assay is classed as biochemical. Particulars: read-out: Parameter by metallo-β-lactamase / VIM-2 / KM; 50 mM HEPES pH 7.0, 10 μM added ZnSO4, 25°C.

For `CC(C)(O/N=C(\C(=O)N[C@@H]1C(=O)N2C(C(=O)[O-])=C(C[n+]3ccccc3)CS[C@H]12)c1csc(N)n1)C(=O)O` [Ceftazidime], the Km on VIM-2 [1] was 90 ± 11 µM. The figures for the MIC (with E. coli DH10B pBCSK-; in assay [2]) were 0.5 µg/mL (≈ 0.915 µM) and 32 µg/mL (≈ 58.5 µM), respectively.

On to `C[C@@H](O)[C@H]1C(=O)N2C(C(=O)O)=C(S[C@@H]3CN[C@H](C(=O)N(C)C)C3)[C@H](C)[C@H]12` [Meropenem], for which the Km on VIM-2 [3] came out at 5 ± 0.8 µM. The figures for the MIC (in the assay on E. coli DH10B pBCSK-; in assay [2]) were 0.03 µg/mL (≈ 0.0782 µM) and 0.5 µg/mL (≈ 1.3 µM), respectively.

`CC(=O)OCC1=C(C(=O)O)N2C(=O)[C@@H](NC(=O)Cc3cccs3)[C@H]2SC1` [Cephalothin]: the values for the MIC (with E. coli DH10B pBCSK-; in assay [2]) were 4 µg/mL (≈ 10.1 µM) and 256 µg/mL (≈ 646 µM), respectively.

With `CC1(C)S[C@@H]2[C@H](NC(=O)[C@H](N)c3ccccc3)C(=O)N2[C@H]1C(=O)O` [Ampicillin], the Km at VIM-2 [4] amounted to 84 ± 7 µM. In addition, the MIC was 4 µg/mL (≈ 11.4 µM) in the assay on E. coli DH10B pBCSK- and 1020 µg/mL (≈ 2930 µM) in assay [2].

In the case of `C[C@@H](O)[C@H]1C(=O)N2C(C(=O)O)=C(SCCNC=N)C[C@H]12` [Imipenem], the MIC was found to be 0.5 µg/mL (≈ 1.67 µM) with E. coli DH10B pBCSK- and 4 µg/mL (≈ 13.4 µM) in assay [2].

Chromacef: on VIM-2 [5], the Km turned out to be 11 ± 2 µM.

Turning to `C[C@@H](O)[C@H]1C(=O)N2C(C(=O)O)=C(S[C@@H]3CN[C@H](C(=O)Nc4cccc(C(=O)O)c4)C3)[C@H](C)[C@H]12` [Ertapenem], the MIC with E. coli DH10B pBCSK- came to 0.0075 µg/mL (≈ 0.0158 µM); in assay [2], 0.25 µg/mL (≈ 0.526 µM).
